“Also recorded” adds a separate entry of the source. Where two headings read alike, the source gives them in different places.
How the values were obtained:
anti-Chlamydia abzymes [1] = assay type: biochemical, human
Experimental: (§1) For chemical inactivation, a diluent solution was divided into two portions. In one portion, an abzyme inhibitor was added.
(§2) The serum sample was split in two aliquots and one aliquot was diluted by solution containing the abzyme inhibitor, the second aliquot was diluted by the control solution. The aliquots were then tested in the same fashion.
Lipid peroxidation was assessed as a level of MDA concentration, which was measured by spectrophotometric methods [Draper, H. H. et al Free Radio. Biol. Med. (1993) 15, 353]. Briefly, the level of abzymes in a sample was determined as follows: Samples of sera were diluted 1:1 by 0.05M acetate buffer pH 4.0 to make the final pH of these samples between 5.6-5.8. 994 μl of the diluted serum was mixed with 10 μl of the commercial live ovine Chlamydia vaccine (Intervet). Samples were incubated overnight (12-16 hours) at 37° C. 250 μl of 40% trichloroacetic acid and 250 μl of 1 mM 2-thiobarbituric acid was added to each sample. All samples were placed in a water bath and boiled for 30 minutes. Samples were cooled down and centrifuged at 3,000 g for 10 minutes. The supernatants were collected and their absorption measured at λ525 nm to determine the concentration of malondialdehydes (MDA), which are products of lipid peroxidation.

anti-Chlamydia abzymes [2] = assay type: biochemical, human; remark: listed apart in the source
Experimental: as §1, §2
ELISA assays were performed using Medac materials and reagents, which were used in accordance with the manufacturers instructions.
Briefly, serum samples from patients were treated as described above. 50 μl of sample diluent was pipetted into microtitre well Al as blank, and 50 μl of the negative control, Positive Control and the diluted patients' samples were pipetted into other microtitre wells. The microplate wells were incubated for 60 min (±5 min) at 37° C. (±1° C.) in a humid chamber and then washed three times with 200 μl wash buffer per well. 50 μl of Conjugate was then added to each well and the microplate wells incubated again for 60 min (±5 min) at 37° C. (±1° C.) in a humid chamber and then washed. 50 μl of TME-Substrate, was added to each well and the microplate wells incubated for 30 min (±2 min) at 37° C. (±1° C.) in a humid chamber. The reaction was stopped by adding 100 μl of Stop Solution, to each well.
Photometric reading was performed at 450 nm (ref. 620-650 nm) within 15 min after adding the Stop Solution.
To calculate the results, the OD value of the blank (well Al) was subtracted from all other OD values. […] Cut-off=mean OD value of the Negative Control+0.380. Grey zone=Cut-off±10%
If there was a difference between 10 and 15% (or an increase in one titer in MIF) of the signal between treated and non-treated samples the conclusion was that the activity of the abzymes was unclear, or in the “grey” zone.

[3] = serum with live ovine Chlamydia vaccine, pH 5.6-5.8, overnight 37° C.
[4] = serum diluted with inhibitor solution vs control solution
[5] = summary in text, tested by ELISA and the lipid oxidation assay

Row | Compound | Inhibition of abzymes ability to cause: Serum lipid peroxidation, in MDA assay (anti-Chlamydia abzymes [1]; pH 5.6) | Inhibition of abzymes ability to cause: Damage of Chlamydia pneumoniae antigen, in ELISA (anti-Chlamydia abzymes [2]) | Inhibition of abzymes ability to cause: Serum lipid peroxidation, in MDA assay (anti-Chlamydia abzymes [1]; [3]) | Inhibition of abzymes ability to cause: Damage of Chlamydia pneumoniae antigen, in ELISA (anti-Chlamydia abzymes [2]; [4]) | other results
1 | Haemoglobin | Positive | Positive | – | – | Inhibition of abzyme activity (statement in text) (anti-Chlamydia abzymes [2]): inhibit abzyme activity; also recorded: abzyme inhibitors
2 | O=C(O)c1ccccc1 [Benzoic acid] | Negative | Negative | – | – | –
3 | Cc1c(O)cc2c(c1C)O[C@](C)(CCC[C@H](C)CCC[C@H](C)CCCC(C)C)CC2 [(+) y-Tocopherol] | Negative | Negative | – | – | –
4 | CC[C@H]1OC(=O)[C@H](C)C(=O)[C@H](C)[C@@H](O[C@@H]2O[C@H](C)C[C@H](N(C)C)[C@H]2O)[C@](C)(OC)C[C@@H](C)C(=O)[C@H](C)[C@H]2N(CCCCn3cnc(-c4cccnc4)c3)C(=O)O[C@]12C [Telithromycin, Ketek, Telithromycin] | – | – | Positive | Positive | Inhibition of abzyme activity (statement in text) (anti-Chlamydia abzymes [2]; summary in text, tested by ELISA and the lipid oxidation assay, listed as telithromycin): abzyme inhibitors; Inhibition of abzyme activity (statement in text) (anti-Chlamydia abzymes [2]; summary in text, tested by ELISA and the lipid oxidation assay, listed as telithromycin ketek): inhibit abzyme activity; Inhibition of abzyme activity (statement in text) (anti-Chlamydia abzymes [2]; summary in text, tested by ELISA and the lipid oxidation assay, listed as telithromycin-ketek): abzyme inhibitors
5 | CC[C@H]1OC(=O)[C@H](C)[C@@H](O[C@H]2C[C@@](C)(OC)[C@@H](O)[C@H](C)O2)[C@H](C)[C@@H](O[C@@H]2O[C@H](C)C[C@H](N(C)C)[C@H]2O)[C@](C)(O)C[C@@H](C)CN(C)[C@H](C)[C@@H](O)[C@]1(C)O [azithromycin] | – | – | – | – | Inhibition of abzyme activity (statement in text) (anti-Chlamydia abzymes [2]; [5]): abzyme inhibitors
6 | Cc1c(C)c2c(c(C)c1O)CC[C@@](C)(CCC[C@H](C)CCC[C@H](C)CCCC(C)C)O2 [(+) α-Tocopherol] | – | – | Negative | Negative | –
7 | CC1=C(/C=C/C(C)=C/C=C/C(C)=C/C=C/C=C(C)/C=C/C=C(C)/C=C/C2=C(C)CCCC2(C)C)C(C)(C)CCC1 [β-Carotene] | Negative | Negative | – | – | –
8 | C[S+](C)[O-] [DMSO] | – | – | Positive | Positive | Inhibition of abzyme activity (statement in text) (anti-Chlamydia abzymes [2]; [5]): inhibit abzyme activity; also recorded: abzyme inhibitors; Inhibition of abzyme activity (statement in text) (anti-Chlamydia abzymes [2]; tested by ELISA and the lipid oxidation assay, listed as DMS): abzyme inhibitors
9 | (+) Catechin gallate | – | – | Positive | Positive | Inhibition of abzyme activity (statement in text) (anti-Chlamydia abzymes [2]; summary in text, tested by ELISA and the lipid oxidation assay, listed as (+) catechin gallate): abzyme inhibitors; Inhibition of abzyme activity (statement in text) (anti-Chlamydia abzymes [2]; summary in text, tested by ELISA and the lipid oxidation assay, listed as catechin gallate): inhibit abzyme activity; also recorded: abzyme inhibitors
10 | OC[C@@H](O)[C@@H](O)[C@H](O)[C@H](O)CO [D-Mannitol] | – | – | Negative | Negative | –
11 | CC(C)=CCC/C(C)=C/C=C/C(C)=C/C=C/C(C)=C/C=C/C=C(C)/C=C/C=C(C)/C=C/C=C(\C)CCC=C(C)C [Lycopene] | – | – | Negative | Negative | –
12 | O=C1O[C@H]([C@@H](O)CO)C(O)=C1O [Ascorbic acid] | – | – | Positive | Positive | Inhibition of abzyme activity (statement in text) (anti-Chlamydia abzymes [2]; [5]): inhibit abzyme activity; Inhibition of abzyme activity (statement in text) (anti-Chlamydia abzymes [2]; summary in text, tested by ELISA and the lipid oxidation assay, listed as ascorbic acid): abzyme inhibitors
13 | O=C(O)CN(CCOCCOCCN(CC(=O)O)CC(=O)O)CC(=O)O [EGTA] | – | – | – | Positive | Inhibition of abzyme activity (statement in text) (anti-Chlamydia abzymes [2]; [5]): inhibit abzyme activity
14 | CC(=O)Oc1ccccc1C(=O)O [Acetyl salicylic acid] | – | – | Positive | Positive | Inhibition of abzyme activity (statement in text) (anti-Chlamydia abzymes [2]; tested by ELISA and the lipid oxidation assay): inhibit abzyme activity; also recorded: abzyme inhibitors
15 | O=C(O)CN(CCN(CC(=O)O)CC(=O)O)CC(=O)O [EDTA] | Positive | Positive | – | – | Inhibition of abzyme activity (statement in text) (anti-Chlamydia abzymes [2]): inhibit abzyme activity

From patent US20130095505A1, “DETECTION OF LIPID OXIDISING ABZYMES IN SAMPLES” (priority 2005, published 2013)
